Data: patent US10144746B2 (GLOBAL BLOOD THERAPEUTICS, INC., priority 2015, dated 2018)
Where a name gives a salt, the structure may show the parent alone.

biological target: Human plasma kallikrein (Homo sapiens (Human), UniProt P03952); experiment: In vitro plasma kallikrein inhibition assay (chromogenic substrate D-Pro-Phe-Arg-pNa, absorbance at 405 nm, IC50 determination); format: biochemical
Sequence (P03952 391-638): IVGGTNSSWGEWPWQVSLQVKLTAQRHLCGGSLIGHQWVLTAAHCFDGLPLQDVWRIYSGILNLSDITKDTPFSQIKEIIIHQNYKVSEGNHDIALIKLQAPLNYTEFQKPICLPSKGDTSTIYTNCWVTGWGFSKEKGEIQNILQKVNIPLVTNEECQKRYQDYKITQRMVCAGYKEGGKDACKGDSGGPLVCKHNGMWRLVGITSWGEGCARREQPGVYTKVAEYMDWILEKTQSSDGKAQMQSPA
Sequence (P03952 20-390 partner): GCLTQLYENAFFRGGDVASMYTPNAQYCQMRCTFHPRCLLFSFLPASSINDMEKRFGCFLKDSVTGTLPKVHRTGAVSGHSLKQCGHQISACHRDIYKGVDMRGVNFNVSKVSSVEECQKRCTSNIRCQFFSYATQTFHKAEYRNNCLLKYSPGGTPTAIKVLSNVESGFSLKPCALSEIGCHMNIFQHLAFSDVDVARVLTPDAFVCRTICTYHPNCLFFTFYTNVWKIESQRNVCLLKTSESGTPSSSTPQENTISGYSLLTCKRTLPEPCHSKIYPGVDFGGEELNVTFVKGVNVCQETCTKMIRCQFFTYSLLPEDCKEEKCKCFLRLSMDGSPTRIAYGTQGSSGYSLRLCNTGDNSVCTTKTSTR

Question: Which “KLKB1 pIC50” value does the source give for COc1cc(N)nc(C)c1CNC(=O)c1ccc2c(c1)C1OC2c2ccc(-c3ccc(F)cc3F)cc21 (stereo not shown) [Example 80] here?
Answer: 7.57

Question: With COc1cc(N)nc(C)c1CNC(=O)c1ccc2c(c1)C1OC2c2ccc(-c3ccc(Cl)c(F)c3F)cc21 (stereo not shown) [Example 109, trifluoroacetate salt] as the compound, how does the “KLKB1 pIC50” value read?
Answer: 7.59

Question: Which “KLKB1 pIC50” value does the source give for NC(=NO)c1ccc(CNC(=O)c2ccc3c(c2)[C@@H]2O[C@H]3c3ccc(-c4ccc(F)cc4F)cc32)cc1 [Example 203, (1R,8S)-12-(2,4-difluorophenyl)-N-{[4-(N′-hydroxycarbamimidoyl)phenyl]methyl}-15-oxatetracyclo[6.6.1.0^2,^7.0^9,1^4] pentadeca-2,4,6,9,11,13-hexaene-4-carboxamide] here?
Answer: 5.98

Question: NC(=NO)c1ccc(CNC(=O)c2ccc3c(c2)[C@@H]2O[C@H]3c3ccc(-c4ccccc4F)cc32)cc1 [Example 204, (1R,8S)-12-(2-fluorophenyl)-N-{[4-(N′-hydroxycarbamimidoyl)phenyl]methyl}-15-oxatetracyclo[6.6.1.0^2,^7.0^9,1^4] pentadeca-2,4,6,9,11,13-hexaene-4-carboxamide] was tested. Which “KLKB1 pIC50” value did it give?
Answer: 6.03

Question: With CON=C(N)c1ccc(CNC(=O)c2ccc3c(c2)[C@@H]2O[C@H]3c3ccc(-c4ccc(F)cc4F)cc32)cc1 [Example 225] as the compound, how does the “KLKB1 pIC50” value read?
Answer: 5

Question: For CON=C(N)c1ccc(CNC(=O)c2ccc3c(c2)[C@@H]2O[C@H]3c3ccc(-c4ccccc4F)cc32)cc1 [Example 240, (1R,8S)-12-(2-fluorophenyl)-N-{[4-(N′-methoxy-carbamimidoyl)phenyl]methyl}-15-oxatetracyclo-[6.6.1.0^2,^7.0^9,1^4]pentadeca-2,4,6,9,11,13-hexaene-4-carboxamide], which “KLKB1 pIC50” value is on record?
Answer: 4

Question: How did the “KLKB1 pIC50” value turn out when CON=C(N)c1ccc(CNC(=O)c2ccc3c(c2)[C@@H]2O[C@H]3c3ccc(-c4ccc(F)cc4)cc32)cc1 [Example 241, (1R,8S)-12-(4-fluorophenyl)-N-{[4-(N′-methoxy-carbamimidoyl)pheny]methyl}-15-oxatetracyclo-[6.6.1.0^2,^7.0^9,1^4]pentadeca-2,4,6,9,11,13-hexaene-4-carboxamide] was run?
Answer: 4

Question: Which “KLKB1 pIC50” value does the source give for CON=C(N)c1ccc(CNC(=O)c2ccc3c(c2)[C@@H]2O[C@H]3c3ccc(-c4ccc(Cl)s4)cc32)cc1 [Example 251, (1S,8R)-12-(5-chlorothiophen-2-yl)-N-({4-[N′-methoxycarbamimidoyl]phenyl}methyl)-15-oxatetracyclo[6.6.1.0^2,^7.0^9,1^4] pentadeca-2,4,6,9,11,13-hexaene-4-carboxamide] here?
Answer: 4

Question: With CON=C(N)c1cc(F)c(CNC(=O)c2ccc3c(c2)[C@@H]2O[C@H]3c3ccc(-c4ccc(F)cc4F)cc32)c(F)c1 [Example 255, (1R,8S)-N-({2,6-difluoro-4-[N′-methoxy-carbamimidoyl]phenyl}methyl)-12-(2,4-difluorophenyl)-15-oxatetracyclo[6.6.1.0^2,^7.0^9,1^4]-pentadeca-2,4,6,9,11,13-hexaene-4-carboxamide] as the compound, how does the “KLKB1 pIC50” value read?
Answer: 6.18

Question: For NC(=NO)c1cc(F)c(CNC(=O)c2ccc3c(c2)[C@@H]2O[C@H]3c3ccc(-c4ccc(F)cc4F)cc32)c(F)c1 [Example 266, (1R,8S)-N-({2,6-difluoro-4-[N′-hydroxy-carbamimidoyl]phenyl}methyl)-12-(2,4-difluorophenyl)-15-oxatetracyclo[6.6.1.0^2,^7.0^9,1^4]-pentadeca-2,4,6,9,11,13-hexaene-4-carboxamide], which “KLKB1 pIC50” value is on record?
Answer: 6.99

Question: CON=C(N)c1ccc(CNC(=O)c2ccc3c(c2)[C@@H]2O[C@H]3c3ccc(C4CC4)cc32)cc1 [Example 272, (1R,8S)-12-cyclopropyl-N-({4-[N′-methoxy-carbamimidoyl]phenyl}methyl)-15-oxatetracyclo[6.6.1.0^2,^7.0^9,1^4] pentadeca-2,4,6,9,11,13-hexaene-4-carboxamide] was tested. Which “KLKB1 pIC50” value did it give?
Answer: 5.61

Question: For CON=C(N)c1cc(F)c(CNC(=O)c2ccc3c(c2)[C@@H]2O[C@H]3c3ccc(-c4nccs4)cc32)c(F)c1 [Example 274], which “KLKB1 pIC50” value is on record?
Answer: 5.86

Question: For NC(=NO)c1ccc(CNC(=O)c2ccc3c(c2)[C@@H]2O[C@H]3c3ccc(-c4ccc(Cl)s4)cc32)cc1 [Example 276, (1S,8R)-12-(5-chlorothiophen-2-yl)-N-{[4-(N′-hydroxycarbamimidoyl)phenyl]methyl}-15-oxatetracyclo[6.6.1.0^2,^7.0^9,1^4] pentadeca-2,4,6,9,11,13-hexaene-4-carboxamide], which “KLKB1 pIC50” value is on record?
Answer: 4

Question: How did the “KLKB1 pIC50” value turn out when “(±)-N4-[(6-amino-2,4- dimethylpyridin-3-yl)methyl]- 11-cyano-15-oxatetracyclo- [6.6.1.0^2,^7.0^9,1^4]pentadeca- 2,4,6,9,11,13-hexaene-4,12- dicarboxamide and (±)-N4-[(6- amino-2,4-dimethylpyridin-3- yl)methyl]-12-cyano-15- oxatetracyclo[6.6.1.0^2,^7.0^9,1^4] pentadeca-2,4,6,9,11,13- hexaene-4,11-dicarboxamide [Example 333]” was run?
Answer: 5.64

Question: For “(±)-N-[(4-carbamimidoylphenyl) methyl]-12-(4- fluorophenyl)-8-methyl-15- oxatetracyclo- [6.6.1.0^2,^7.0^9,1^4]pentadeca- 2,4,6,9,11,13-hexaene-4- carboxamide [Example 346]”, which “KLKB1 pIC50” value is on record?
Answer: 7.26

Question: For “(±)-N-[(6-amino-2,4- dimethylpyridin-3-yl) methyl]-12-(2,4- difluorophenyl)tetracyclo- [6.6.1.0^2,^7.0^9,1^4]hexadeca- 2,4,6,9,11,13-hexaene-4- carboxamide and (±)-N-[(6- amino-2,4-dimethylpyridin- 3-yl)methyl]-11-(2,4- difluorophenyl)tetracyclo [6.6.1.0^2,^7.0^9,1^4]hexadeca- 2,4,6,9,11,13-hexaene-4- carboxamide [Example 261]”, which “KLKB1 pIC50” value is on record?
Answer: 6.32

Question: How did the “KLKB1 pIC50” value turn out when “(±)-N-[(6-amino-2,4- dimethylpyridin-3-yl)-methyl]- 12-(2,4-difluorophenyl)-15- methyl-15-azatetracyclo [6.6.1.0^2,^7.0^9,1^4]pentadeca- 2,4,6,9,11,13- hexaene-4-carboxamide and (±)-N-[(6-amino-2,4- dimethylpyridin-3-yl)methyl]- 11-(2,4-difluorophenyl)-15- methyl-15-azatetra-cyclo [6.6.1.0^2,^7.0^9,1^4]pentadeca- 2,4,6,9,11,13-hexaene-4- carboxamide [Example 115]” was run?
Answer: 4

Question: With “(±)-N-[(6-amino-2,4- dimethylpyridin-3-yl)methyl]- 12-(4-fluorophenyl)-1,8- dimethyl-15- oxatetracyclo[6.6.1.0^2,^7.0^9,1^4] pentadeca-2,4,6,9,11,13- hexaene-4-carboxamide and (±)-N-[(6-amino-2,4- dimethylpyridin-3-yl)methyl]- 11-(4-fluorophenyl)-1,8- dimethyl-15-oxatetracyclo [6.6.1.0^2,^7.0^9,1^4]pentadeca- 2,4,6,9,11,13-hexaene-4- carboxamide [Example 339]” as the compound, how does the “KLKB1 pIC50” value read?
Answer: 4

Question: For “(±)-N-[(6-amino-2,4- dimethylpyridin-3-yl)methyl]- 12-(phenylsulfanyl)-15- oxatetracyclo[6.6.1.0^2,^7.0^9,1^4] pentadeca- 2,4,6,9,11,13-hexaene-4- carboxamide (±)-N-[(6-amino-2,4- dimethylpyridin-3-yl)methyl]-11- (phenylsulfanyl)-15- oxatetracydo[6.6.1.0^2,^7.0^9,1^4] pentadeca-2,4,6,9,11,13- hexaene-4-carboxamide [Example 164]”, which “KLKB1 pIC50” value is on record?
Answer: 6.86

Question: For “(±)-N-[(6-amino-2,4-dimethyl- pyridin-3-yl)methyl]-12-(2,4- difluorophenyl)-11-ethenyl-15- oxatetracyclo[6.6.1.0^2,^7.0^9,1^4] pentadeca-2,4,6,9,11,13- hexaene-4-carboxamide and (±)-N-[(6-amino-2,4- dimethylpyridin-3-yl)methyl]- 11-(2,4-difluorophenyl)-12- ethenyl-15-oxatetraoyclo [6.6.1.0^2,^7.0^9,1^4]pentadeca- 2,4,6,9,11,13-hexaene-4- carboxamide [Example 322]”, which “KLKB1 pIC50” value is on record?
Answer: 8.57

Question: “(±)-N-[(6-amino-2,4-dimethyl- pyridin-3-yl)methyl]-12-(2,4- difluorophenyl)-11-methyl-15- oxatetracyclo[6.6.1.0^2,^7.0^9,1^4] pentadeca-2,4,6,9(14),10,12- hexaene-4-carboxamide and (±)-N-[(6-amino-2,4- dimethylpyridin-3-yl)methyl]-11- (2,4-difluorophenyl)-12- methyl-15-oxatetracyclo [6.6.1.0^2,^7.0^9,1^4]pentadeca- 2,4,6,9(14),10,12-hexaene-4- carboxamide [Example 310]” was tested. Which “KLKB1 pIC50” value did it give?
Answer: 7.7

Question: With “(±)-N-[(6-amino-4-ethoxy- 2-methylpyridin-3-yl)methyl]-12- (2,4-difluorophenyl)-16-oxo-15- azatetracyclo[6.6.1.0^2,^7.0^9,1^4] hexadeca-2,4,6,9,11,13- hexaene-4-carboxamide and (±)-N-[(6-amino-4-ethoxy-2- methylpyridin-3-yl)methyl]- 11-(2,4-difluorophenyl)-16-oxo- 15-azatetracyclo[6.6.1.0^2,^7.0^9,1^4] hexadeca-2,4,6,9,11,13- hexaene-4-carboxamide [Example 163]” as the compound, how does the “KLKB1 pIC50” value read?
Answer: 6.11
